Data taken from patent US20240391948A1, “NOVEL COMPOUND THAT INHIBITS TNF-ALPHA GENERATION AND INFLAMMASOME ACTIVITY AND PREPARATION METHOD THEREFOR” (SHAPERON INC., priority 2021, published 2024).
pIC50: −log10 of the molar value.

Columns and labels:
Format in all cases: cell-based
[1] = system: J774A.1 (Mouse BALB/c monocyte macrophage cell line) cells; assay: LPS-induced TNF-α secretion inhibition in J774A.1 cells; details: J774.A1, 1 μM compound, graded compared to taurodeoxycholic acid (positive control), read-out: TNF-α production inhibition grade
Summary of the method: (§1)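 Grades (A >100%, B 50–100%, C 20–50%, D <20%) express cytokine suppression by 1 μM compound relative to taurodeoxycholic acid. LPS-induced TNF-α and LPS+ATP-induced IL-1β secretion were measured in murine J774A.1 macrophage cells.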

[2] = system: J774A.1 (Mouse BALB/c monocyte macrophage cell line) cells; assay: LPS+ATP-induced IL-1β secretion inhibition in J774A.1 cells; details: J774.A1, 1 μM compound, graded compared to taurodeoxycholic acid (positive control), read-out: IL-1β production inhibition grade
Summary of the method: as §1

[3] = system: U937 cells (human monocytic cell line); assay: Pam2CSK4-induced TNF-α secretion inhibition in PMA-differentiated U937 cells; details: U-937, U937 cells differentiated with PMA, read-out: TNF-α production inhibition grade (IC50)
Summary of the method: (§2)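 Inhibition is given as IC50 (μM) in A-D bands, using distinct thresholds for TNF-α and for IL-1β. Secretion followed Pam2CSK4 stimulation (TNF-α) or BzATP stimulation (IL-1β) of compound-pretreated, PMA-differentiated U937 macrophages.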

[4] = system: U937 cells (human monocytic cell line); assay: BzATP-induced IL-1β secretion inhibition in PMA-differentiated U937 cells; details: U-937, U937 cells differentiated with PMA, read-out: IL-1β production inhibition grade (IC50)
Summary of the method: as §2

Row | Compound | inhibition at 1 µM [1] [%] | inhibition at 1 µM [2] [%] | pIC50 [3] | pIC50 [4]
1 | CC[C@H]1[C@@H](O)[C@@H]2[C@H](C[C@H](O)[C@]3(C)[C@@H]([C@H](C)CCC(=O)N(CCO)CCS(=O)(=O)O)CC[C@@H]23)[C@@]2(C)CC[C@@H](O)C[C@@H]12 [NC50006] | < 20 | < 20 | ≤ 5.70 | > 7.30
2 | CC[C@H]1[C@@H](O)[C@@H]2[C@H](C[C@H](O)[C@]3(C)[C@@H]([C@H](C)CCC(=O)N(CCS(=O)(=O)O)C(C)C)CC[C@@H]23)[C@@]2(C)CC[C@@H](O)C[C@@H]12 [NC50007] | < 20 | > 100 | 5.70 to 6.00 | 7.00 to 7.30
3 | CC[C@H]1[C@@H](O)[C@@H]2[C@H](C[C@H](O)[C@]3(C)[C@@H]([C@H](C)CCC(=O)N(CCS(=O)(=O)O)C4CCOCC4)CC[C@@H]23)[C@@]2(C)CC[C@@H](O)C[C@@H]12 [NC50008] | < 20 | > 100 | 6.00 to 6.30 | > 7.30
4 | CC[C@H]1[C@@H](O)[C@@H]2[C@H](C[C@H](O)[C@]3(C)[C@@H]([C@H](C)CCC(=O)N4CCC[C@@H](S(=O)(=O)O)C4)CC[C@@H]23)[C@@]2(C)CC[C@@H](O)C[C@@H]12 [NC50010] | < 20 | > 100 | ≤ 5.70 | 6.70 to 7.00
5 | CC[C@H]1[C@@H](O)[C@@H]2[C@H](C[C@H](O)[C@]3(C)[C@@H]([C@H](C)CCC(=O)N4CC(S(=O)(=O)O)C4)CC[C@@H]23)[C@@]2(C)CC[C@@H](O)C[C@@H]12 [NC50012] | < 20 | > 100 | 5.70 to 6.00 | > 7.30
6 | CC[C@H]1[C@@H](O)[C@@H]2[C@H](C[C@H](O)[C@]3(C)[C@@H]([C@H](C)CCC(=O)NC(C)(C)CS(=O)(=O)O)CC[C@@H]23)[C@@]2(C)CC[C@@H](O)C[C@@H]12 [NC50013] | < 20 | > 100 | 5.70 to 6.00 | > 7.30
7 | CC[C@H]1[C@@H](O)[C@@H]2[C@H](C[C@H](O)[C@]3(C)[C@@H]([C@H](C)CCC(=O)N[C@H](Cc4ccccc4)CS(=O)(=O)O)CC[C@@H]23)[C@@]2(C)CC[C@@H](O)C[C@@H]12 [NC50015] | < 20 | > 100 | 5.70 to 6.00 | 7.00 to 7.30
8 | CC[C@H]1[C@@H](O)[C@@H]2[C@H](C[C@H](O)[C@]3(C)[C@@H]([C@H](C)CCC(=O)N[C@H](CS(=O)(=O)O)C(C)C)CC[C@@H]23)[C@@]2(C)CC[C@@H](O)C[C@@H]12 [NC50016] | < 20 | > 100 | 6.00 to 6.30 | 7.00 to 7.30
9 | CC[C@H]1[C@@H](O)[C@@H]2[C@H](C[C@H](O)[C@]3(C)[C@@H]([C@H](C)CCC(=O)N[C@H](CS(=O)(=O)O)c4ccccc4)CC[C@@H]23)[C@@]2(C)CC[C@@H](O)C[C@@H]12 [NC50018] | < 20 | 50 to 100 | ≤ 5.70 | 7.00 to 7.30
10 | CC[C@H]1[C@@H](O)[C@@H]2[C@H](C[C@H](O)[C@]3(C)[C@@H]([C@H](C)CCC(=O)N[C@@H](CS(=O)(=O)O)c4ccccc4)CC[C@@H]23)[C@@]2(C)CC[C@@H](O)C[C@@H]12 [NC50019] | < 20 | 50 to 100 | 5.70 to 6.00 | ≤ 6.70
11 | CC[C@H]1[C@@H](O)[C@@H]2[C@H](C[C@H](O)[C@]3(C)[C@@H]([C@H](C)CCC(=O)N4CCC[C@H]4CS(=O)(=O)O)CC[C@@H]23)[C@@]2(C)CC[C@@H](O)C[C@@H]12 [NC50021] | < 20 | 20 to 50 | 6.00 to 6.30 | ≤ 6.70
12 | CC[C@H]1[C@@H](O)[C@@H]2[C@H](C[C@H](O)[C@]3(C)[C@@H]([C@H](C)CCC(=O)N[C@@H](CO)CS(=O)(=O)O)CC[C@@H]23)[C@@]2(C)CC[C@@H](O)C[C@@H]12 [NC50024] | < 20 | 20 to 50 | ≤ 5.70 | ≤ 6.70
13 | CC[C@H]1[C@@H](O)[C@@H]2[C@H](C[C@H](O)[C@]3(C)[C@@H]([C@H](C)CCC(=O)N[C@H]4CCCC[C@H]4S(=O)(=O)O)CC[C@@H]23)[C@@]2(C)CC[C@@H](O)C[C@@H]12 [NC50027] | < 20 | 20 to 50 | 5.70 to 6.00 | ≤ 6.70
14 | CC[C@H]1[C@@H](O)[C@@H]2[C@H](C[C@H](O)[C@]3(C)[C@@H]([C@H](C)CCC(=O)N[C@@H](C)CS(=O)(=O)O)CC[C@@H]23)[C@@]2(C)CC[C@@H](O)C[C@@H]12 [NC50028] | < 20 | 50 to 100 | 5.70 to 6.00 | ≤ 6.70
15 | CC[C@H]1[C@@H](O)[C@@H]2[C@H](C[C@H](O)[C@]3(C)[C@@H]([C@H](C)CCC(=O)N[C@H](C)CS(=O)(=O)O)CC[C@@H]23)[C@@]2(C)CC[C@@H](O)C[C@@H]12 [NC50029] | < 20 | 50 to 100 | 6.00 to 6.30 | ≤ 6.70
16 | CC[C@H]1[C@@H](O)[C@@H]2[C@H](C[C@H](O)[C@]3(C)[C@@H]([C@H](C)CCC(=O)N[C@@H](CC(C)C)CS(=O)(=O)O)CC[C@@H]23)[C@@]2(C)CC[C@@H](O)C[C@@H]12 [NC50030] | < 20 | 50 to 100 | ≤ 5.70 | 6.70 to 7.00
17 | CC[C@H]1[C@@H](O)[C@@H]2[C@H](C[C@H](O)[C@]3(C)[C@@H]([C@H](C)CCC(=O)N[C@H](CC(C)C)CS(=O)(=O)O)CC[C@@H]23)[C@@]2(C)CC[C@@H](O)C[C@@H]12 [NC50031] | < 20 | 50 to 100 | ≤ 5.70 | 7.00 to 7.30
18 | CC[C@H]1[C@@H](O)[C@@H]2[C@H](C[C@H](O)[C@]3(C)[C@@H]([C@H](C)CCC(=O)NC4(CS(=O)(=O)O)CC4)CC[C@@H]23)[C@@]2(C)CC[C@@H](O)C[C@@H]12 [NC50032] | < 20 | 50 to 100 | ≤ 5.70 | 7.00 to 7.30
